Test results reported in patent publication US11000568B2, “Means and methods for treating copper-related diseases” (HELMHOLTZ ZENTRUM MÜNCHEN—DEUTSCHES FORSCHUNGSZENTRUM FÜR …, priority 2015, dated 2021).
Entries after “also recorded” stand apart in the source; their conditions may differ. Numbered stars: 1 amine (or outer) side, 2 acyl side, 3 side chain; on linkers, the order of the positions; unused ones are H or OH. Bridge positions count the residues as written; N and C are the ends. Square brackets hold non-standard residues; d marks the D form. Peptide text beside a SMILES is read from it. * marks the point of attachment. X2 = O=C1OC(C2CCCN2[*:1])=NC1C(=S)NC(CO)C(=O)[*:2]; X1 = CC(C)CC(=O)C1=NC(C(=S)NCC(=O)*)C(=O)O1

Assays:
[1] = system: WD patient-derived hepatocyte like (HLC) cells; test: De-coppering of WD patient-derived hepatocyte like cells (HLC); format: cell-based, human; conditions: Cu-histidin 15 μM 24 h, then MB 300 μM 24 h
Protocol: Urinary epithelial cells were pelleted at 400×g for 10 min from freshly donated mid-stream urine (Zhou et al., J Am Soc Nephrol 22, 1221-1228 (2011)). Cells were cultured in urinary cell medium (UCM) consisting of Dulbecco's modified Eagle medium/Ham's F-12 culture medium (DMEM/F12, Lonza) supplemented with 10% fetal bovine serum (FBS, PAA), 0.1 mM non-essential amino acids (NEAA, Sigma), 0.1 mM β-mercaptoethanol, 1 mM GlutaMAX (Life Technologies), and SingleQuot Kit CC-4127 REGM (Lonza). Urinary epithelial cells were reprogrammed by nucleofection of episomal expression vectors pCXLE-hOCT3/4-shp53-F, pCXLE-hSK, and pCXLE-hUL (Addgene) using the Amaxa Basic Nucleofector Kit (Lonza, VPI-1005). iPS cells (iPSCs) were maintained on Matrigel-coated plates in mTeSR cell culture medium and dissociated with 1 U/ml dispase (Stem Cell Technologies) into small clusters and subcultured every 5 to 7 days. WD iPSCs were differentiated into hepatocyte-like cells (HLCs) by a modification of the method reported previously (Basma et al., Gastroenterology 136, 990-999 (2009)). […] iPSCs were plated in single cells onto 6-well plates precoated with Matrigel. […]
HLCs were incubated at day 14 with Cu-histidin (15 μM) for 24 h in a 6 well plate. […] After 24 h incubation, washed cells were collected, counted and their copper content assessed.

LPP−/− rats = test: Repetitive MB treatment cycles in LPP−/− rats; format: in vivo, rat
Excerpt: Due to the efficiency of the short-term MB treatment, we did a first test aiming at replacing daily chelation therapy by a regimen consisting of repetitive treatment cycles interrupted by longer observation cycles (FIG. 14). Five LPP−/− rats as well as five age- and sex-matched LPP+/− controls were included. One pair of rats was sacrificed at experimental days 1, 8, 29, 36 and 85, respectively. […] The four remaining LPP−/− rats were subjected to the first treatment cycle consisting of three daily MB injections (i.p.) for five days. […] Upon the second treatment cycle copper loads decreased again, but now down to 25% of the starting values, resulting in an unprecedented low copper load in LPP−/− mitochondria (day 36, pair 4). […] At experimental day 85, liver and mitochondrial copper loads had risen back to values before beginning of the treatment (day 1), associated with an impaired mitochondrial function (65% ATP production capacity) in comparison to its LPP+/− control (pair 5).

[2] = day 36, after second treatment cycle

Compound: CSCCC(NC(=O)C1CSSCC(NC(=O)C(CO)NC(=O)CNC(=S)C2N=C(C(=O)CC(C)C)OC2=O)C(=O)NC(Cc2ccc(O)cc2)C(=O)N2CCCC2C2=NC(C(=O)O2)C(=S)NC(CO)C(=O)N1)C(=O)O (centres unmarked) [MB] (X1-SCY[X2]CM-OH; disulfide 2-5; configuration not given here)
- de-coppering of copper preloaded HLC [1]: Comparable copper depletions; also recorded: highly efficiently de-coppered
- copper loads relative to starting values (LPP−/− rats; [2]): 25%
- decoppering efficiency (LPP−/− rats; [2]): 75%
- ATP production capacity vs LPP+/− control (LPP−/− rats; experimental day 85): 65%
- reduction in copper load (LPP−/− rats; experimental day eight, after first cycle (three daily MB i.p. for five days)): 40%
- health status during observation period (LPP−/− rats; further seven weeks after second cycle): stayed healthy
- mitochondrial and liver copper load (LPP−/− rats; recurrent treatment cycles): marked reduction in mitochondrial and liver copper load
- time/age to disease onset vs untreated LPP−/− rats (LPP−/− rats; recurrent treatment cycles): doubling of the age; also recorded: doubling of time before disease onset
